In PubChem BioAssay (NCI):
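Cultured in 96-well plates, cells were exposed to test compound for 48 hours across five concentrations. TGI: concentration producing complete growth inhibition.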

Experiments:
Assay in all cases: inhibition of tumour cell growth, NCI panel, 48 h
[1] = tested on: MDA-N
[2] = tested on: NCI-H226 lung
[3] = tested on: SW-620 colon
[4] = tested on: HCC-2998 colon
[5] = tested on: MDA-MB-435
[6] = tested on: TK-10 renal
[7] = tested on: 786-0 renal
[8] = tested on: OVCAR-8 ovarian
[9] = tested on: SN12C renal
[10] = tested on: HT29 colon
[11] = tested on: NCI/ADR-RES ovarian
[12] = tested on: SK-OV-3 ovarian
[13] = tested on: SK-MEL-28 melanoma
[14] = tested on: MDA-MB-231 breast
[15] = tested on: OVCAR-3 ovarian
[16] = tested on: DU-145 prostate
[17] = tested on: SF-268 CNS
[18] = tested on: KM12 colon
[19] = tested on: NCI-H23 lung
[20] = tested on: SK-MEL-2 melanoma
[21] = tested on: K-562 leukemia
[22] = tested on: CAKI-1 renal
[23] = tested on: HS 578T breast
[24] = tested on: ACHN renal
[25] = tested on: UACC-257 melanoma
[26] = tested on: PC-3 prostate
[27] = tested on: OVCAR-5 ovarian
[28] = tested on: OVCAR-4 ovarian
[29] = tested on: A549 NSCLC
[30] = tested on: T-47D breast
[31] = tested on: NCI-H460 lung
[32] = tested on: SK-MEL-5 melanoma
[33] = tested on: HOP-92 NSCLC
[34] = tested on: UO-31 renal
[35] = tested on: HL-60(TB) leukemia
[36] = tested on: SNB-19 CNS
[37] = tested on: EKVX NSCLC
[38] = tested on: COLO 205 colon
[39] = tested on: SR leukemia
[40] = tested on: LOX IMVI melanoma
[41] = tested on: SF-295 CNS
[42] = tested on: MCF7 breast
[43] = tested on: U251 CNS
[44] = tested on: BT-549 breast
[45] = tested on: CCRF-CEM leukemia
[46] = tested on: SF-539 CNS
[47] = tested on: RPMI-8226 leukemia
[48] = tested on: HCT-116 colon
[49] = tested on: M14 melanoma
[50] = tested on: HCT-15 colon
[51] = tested on: MOLT-4 leukemia
[52] = tested on: IGROV1 ovarian
[53] = tested on: NCI-H522 lung
[54] = tested on: HOP-62 NSCLC
[55] = tested on: RXF 393 renal
[56] = tested on: MALME-3M melanoma
[57] = tested on: UACC-62 melanoma

COc1cccc(/N=N/C(=NNC(=O)c2ccc(C)cc2)c2ccc(N(C)C)cc2)c1
TGI [1]: > 100 µM
TGI [2]: > 100 µM
TGI [3]: > 100 µM
TGI [4]: > 100 µM
TGI [5]: > 100 µM
TGI [6]: > 100 µM
TGI [7]: > 100 µM
TGI [8]: > 100 µM
TGI [9]: > 100 µM
TGI [10]: > 100 µM
TGI [11]: > 100 µM
TGI [12]: > 100 µM
TGI [13]: > 100 µM
TGI [14]: > 100 µM
TGI [15]: > 100 µM
TGI [16]: > 100 µM
TGI [17]: > 100 µM
TGI [18]: > 100 µM
TGI [19]: > 100 µM
TGI [20]: > 100 µM
TGI [21]: > 100 µM
TGI [22]: > 100 µM
TGI [23]: > 100 µM
TGI [24]: > 100 µM
TGI [25]: > 100 µM
TGI [26]: > 100 µM
TGI [27]: > 100 µM
TGI [28]: > 100 µM
TGI [29]: > 100 µM
TGI [30]: > 100 µM
TGI [31]: > 100 µM
TGI [32]: > 100 µM
TGI [33]: > 100 µM
TGI [34]: > 100 µM
TGI [35]: > 100 µM
TGI [36]: > 100 µM
TGI [37]: > 100 µM
TGI [38]: > 100 µM
TGI [39]: > 100 µM
TGI [40]: > 100 µM
TGI [41]: > 100 µM
TGI [42]: > 100 µM
TGI [43]: > 100 µM
TGI [44]: > 100 µM
TGI [45]: > 100 µM
TGI [46]: > 100 µM
TGI [47]: > 100 µM
TGI [48]: > 100 µM
TGI [49]: > 100 µM
TGI [50]: > 100 µM
TGI [51]: > 100 µM
TGI [52]: > 100 µM
TGI [53]: > 100 µM

NC(N)=NCCC(O)(P(=O)(O)O)P(=O)(O)O
TGI [1]: > 100 µM
TGI [2]: > 100 µM
TGI [4]: > 100 µM
TGI [6]: > 100 µM
TGI [7]: > 100 µM
TGI [11]: > 100 µM
TGI [12]: > 100 µM
TGI [14]: > 100 µM
TGI [15]: > 100 µM
TGI [16]: > 100 µM
TGI [17]: > 100 µM
TGI [18]: > 100 µM
TGI [19]: > 100 µM
TGI [54]: > 100 µM
TGI [55]: > 100 µM
TGI [22]: > 100 µM
TGI [23]: 57.4 µM
TGI [24]: > 100 µM
TGI [25]: > 100 µM
TGI [26]: > 100 µM
TGI [56]: > 100 µM
TGI [27]: > 100 µM
TGI [29]: > 100 µM
TGI [31]: > 100 µM
TGI [57]: > 100 µM
TGI [32]: > 100 µM
TGI [34]: > 100 µM
TGI [36]: > 100 µM
TGI [37]: > 100 µM
TGI [38]: > 100 µM
TGI [40]: > 100 µM
TGI [41]: > 100 µM
TGI [42]: > 100 µM
TGI [44]: > 100 µM
TGI [46]: > 100 µM
TGI [48]: > 100 µM
TGI [49]: > 100 µM
TGI [50]: > 100 µM
TGI [52]: > 100 µM
TGI [53]: > 100 µM
